Tests used:
[1] = test system: relaxed pBR 322 plasmid DNA; test: DNA unwinding assay, relaxed plasmid as substrate; assay type: binding; conditions: 10 µM, in the presence of Topo I
Description: Compounds that are able to intercalate into DNA or bind in the groove are involved in the local unwinding of the DNA, leading to a decrease in the twist number and an increase in the writhe number of the previously relaxed plasmid DNA used in the assay, resulting in a positively supercoiled DNA. If this DNA is then nicked by a topoisomerase, the enzyme will remove supercoils and relax the DNA, followed by religation. Upon removal of the compound and the enzyme by butanol extraction, the twist will increase, so the writhe will decrease, resulting in more negatively supercoiled DNA, which runs faster on agarose gel. […] This assay should be verified by performing a second reaction using a negatively supercoiled plasmid as a substrate to confirm that the compound is not simply acting as an inhibitor of the Topo I.
The DNA Unwinding Assay Kit (Cat no. DUKSR001) was purchased from Inspiralis (Norwich, UK). […] After extraction, the aqueous layer was mixed with an equal volume of STEB buffer (40% (w/v) sucrose, Tris–HCl (100 mM, pH 8), EDTA (1 mM), bromophenol blue (0.5 mg/ml)), extracted with chloroform/isoamyl alcohol (24:1), and analysed on 1% agarose gel in TAE buffer at 70 V for 2 h, followed by ethidium bromide staining. […]

HepG2 cells = test: Mitochondrial membrane potential (MMP) measurement (JC-1); assay type: cell-based, human; conditions: HepG2, 3-h treatment, 4.5 µM; 69.9% in control cells
Method: The HepG2 cells were seeded at the density of 2 × 10^5 cells/well onto 12-well plates and cultured with EMEM at 37 °C under 5% CO2 saturation until 70–80% confluency was reached. […] After incubation, the cells were detached with trypsin (Corning®) and washed twice with 1 ml of DPBS (Capricorn), and alterations in ΔΨm were analysed using the MMP-sensitive cationic dye 5,5′,6,6′-tetrachloro-1,1′,3,3′-tetraethylbenzimidazolylcarbocyanine iodide (JC-1; Thermo Fisher Scientific), which can selectively enter mitochondria and change colour from red to green as the membrane potential decreases. The cells were stained with 2.5 µM JC-1 for 30 min at 37 °C in the dark. The maximum emission wavelengths of JC-1 monomers and “J-aggregates” were ∼ 525 (FL-1 channel) and ∼ 590 (FL-2 channel) nm, respectively. To create a strong, single positive green fluorescence signal, 3 µM FCCP was used. The mean fluorescence intensity representing the intracellular MMP level was analysed after incubation with the dye, with excitation at 488 nm using a FACSCalibur flow cytometer (Becton Dickinson), and the data were analysed using the FlowJo software (Becton Dickinson).

| Substance | DNA intercalation (supercoiled DNA fraction from relaxed plasmid) [1] | MMP, JC-1 aggregates (HepG2 cells) [%] |
| --- | --- | --- |
| 4-[(6-[(1,7-Dicarba-closo-dodecaborane-1-yl)ethylamino]hexyl)amino]-3-nitro-N-[2-(N-pyrrolidinyl)ethyl]-1,8-naphthalimide [Compound 37] | strongest DNA intercalator |  |
| 4-[(6-[(1,7-Dicarba-closo-dodecaborane-1-yl)ethylamino]hexyl)amino]-N-[2-(dimethylamino)ethyl]-3-nitro-1,8-naphthalimide [Compound 35] |  | 90.8 |
